Source: patent US9770434B2, “Compositions for improved body composition” (Northern Innovations Holding Corp, priority 2014, dated 2017)
Entries after “also recorded” stand apart in the source; their conditions may differ.

Experiments:
Format in all cases: in vivo, C57BL6/J male mice
[1] = Body weight of high fat diet mice during treatment; settings: HFD mice, ALA about 174 mg/kg daily, curcumin about 65 mg/kg daily; for body weight during the course of the experiment (FIG. 1): supplement in diet, recorded weekly
Excerpt: (§1) 5 week old C57BL6/J male mice were divided into 2 groups as follows: normal diet (ND) (10% kcal/fat) or high fat diet (HFD) (60% kcal/fat) each containing the same total calories. At 12 weeks of age, the HFD group was further divided into 4 groups as follows: HFD alone, HFD supplemented with alpha-lipoic acid (HFD+ALA), HFD supplemented with curcumin (HFD+CUR), or HFD supplemented with alpha-lipoic acid plus curcumin (HFD+ALA+CUR). Based on the average food intake, the daily dose for alpha-lipoic acid in the HFD+ALA group was about 174 mg/kg, the daily dose for curcumin in the HFD+CUR group was about 65 mg/kg, and the daily dose for each component in the HFD+ALA+CUR group was similar to that in the respective groups. Each of the 5 groups contained 8-10 mice. Body weight of the mice was recorded weekly and food intake was monitored every two days. After 10 weeks of treatment mice from each group were subjected to dual-energy X-ray absorptiometry (DEXA) scan; percent (%) body fat, fat mass, and lean mass were calculated.

[2] = DEXA scan of high fat diet mice (body fat %, fat mass, lean mass); settings: HFD mice; after 10 weeks of treatment
Excerpt: as §1

[3] = Food intake of high fat diet mice; settings: HFD mice; monitored every two days; compared to HFD mice
Excerpt: as §1

SMILES	body weight / weight gain after 11 weeks of treatment (FIG. 3) [1]	body weight during the course of the experiment (FIG. 1) [1]	DEXA body fat % (FIG. 6) [2]	DEXA fat mass (FIG. 7) [2]	DEXA lean mass (FIG. 8) [2]	food intake (grams) per day per gram body weight (FIG. 4) [3]	food intake (kcals) per day per gram body weight (FIG. 5) [3]
O=C(O)CCCCC1CCSS1 (racemic) [alpha-lipoic acid, 6,8-dithio octanoic acid]	attenuated weight gain; also recorded: efficacy at attenuating weight gain	weight gain less than the HFD mice	failed to reduce body fat %	attenuated increase in fat mass compared to the HFD group	significant attenuation in lean mass accrual	reduced food intake	reduced calorie intake
COc1cc(/C=C/C(=O)CC(=O)/C=C/c2ccc(O)c(OC)c2)ccc1O [curcumin]	attenuated weight gain; also recorded: efficacy at attenuating weight gain	weight gain less than the HFD mice	reduced the increased body fat % from a high fat diet		unaltered		
